Reference: EPA's CvTdb concentration-time database

Legend:
Rat [1] = test: concentration in plasma after dosing; settings: dosed: 678-39-7, 12 mg/kg, iv, Male, F344
Rat [2] = test: concentration in liver after dosing; settings: oral
Rat [3] = test: concentration in kidney after dosing; settings: oral
Rat [4] = test: concentration in brain after dosing; settings: oral, Harlan Sprague Dawley
Rat [5] = test: concentration in kidney after dosing; settings: 12 h; dosed: Perfluorooctanoic acid; 12 mg/kg; oral; Male; Harlan Sprague Dawley
Rat [6] = test: concentration in plasma after dosing
[7] = 0.5 h, dosed: Fluorotelomer alcohol 8+2, 80 mg/kg, Female, Harlan Sprague Dawley
[8] = 1 h, dosed: Fluorotelomer alcohol 8+2, 24 mg/kg, Male, Harlan Sprague Dawley
[9] = 1 h, dosed: Fluorotelomer alcohol 8+2, 80 mg/kg, Female, Harlan Sprague Dawley
[10] = 3 h, dosed: Fluorotelomer alcohol 8+2, 24 mg/kg, Male, Harlan Sprague Dawley
[11] = 3 h, dosed: Fluorotelomer alcohol 8+2, 80 mg/kg, Female, Harlan Sprague Dawley
[12] = 3 h, dosed: Perfluorooctanoic acid, 12 mg/kg, Male, Harlan Sprague Dawley
[13] = 3 h, dosed: Perfluorooctanoic acid, 80 mg/kg, Female, Harlan Sprague Dawley
[14] = 6 h, dosed: Fluorotelomer alcohol 8+2, 24 mg/kg, Male, Harlan Sprague Dawley
[15] = 6 h, dosed: Fluorotelomer alcohol 8+2, 80 mg/kg, Female, Harlan Sprague Dawley
[16] = 6 h, dosed: Perfluorooctanoic acid, 12 mg/kg, Male, Harlan Sprague Dawley
[17] = 6 h, dosed: Perfluorooctanoic acid, 80 mg/kg, Female, Harlan Sprague Dawley
[18] = 12 h, dosed: Fluorotelomer alcohol 8+2, 24 mg/kg, Male, Harlan Sprague Dawley
[19] = 12 h, dosed: Fluorotelomer alcohol 8+2, 80 mg/kg, Female, Harlan Sprague Dawley
[20] = 12 h, dosed: Perfluorooctanoic acid, 12 mg/kg, Male, Harlan Sprague Dawley
[21] = 12 h, dosed: Perfluorooctanoic acid, 80 mg/kg, Female, Harlan Sprague Dawley
[22] = 24 h, dosed: Perfluorooctanoic acid, 12 mg/kg, Male, Harlan Sprague Dawley
[23] = 24 h, dosed: Perfluorooctanoic acid, 80 mg/kg, Female, Harlan Sprague Dawley
[24] = 48 h, dosed: Perfluorooctanoic acid, 80 mg/kg, Female, Harlan Sprague Dawley
[25] = 192 h, dosed: Perfluorooctanoic acid, 12 mg/kg, Male, Harlan Sprague Dawley
[26] = 528 h, dosed: Perfluorooctanoic acid, 12 mg/kg, Male, Harlan Sprague Dawley
[27] = 528 h, dosed: Perfluorooctanoic acid, 12 mg/kg, Male, Harlan Sprague Dawley - this seems too small
[28] = 1200 h, dosed: Perfluorooctanoic acid, 12 mg/kg, Male, Harlan Sprague Dawley

SMILES: O=C(O)C(F)(F)C(F)(F)C(F)(F)C(F)(F)C(F)(F)C(F)(F)C(F)(F)F [Perfluorooctanoic acid]
- concentration in plasma (Rat [1]; 0.25 h): 102 ng/mL
- concentration in plasma (Rat [1]; 24 h): 607 ng/mL
- concentration in liver (Rat [2]; 0.5 h, dosed: Fluorotelomer alcohol 8+2, 24 mg/kg, Male, Harlan Sprague Dawley): 325 ng/g
- concentration in liver (Rat [2]; 0.5 h, dosed: Fluorotelomer alcohol 8+2, 24 mg/kg, Male, Harlan Sprague Dawley - this seems too small): 211 ng/g
- concentration in liver (Rat [2]; [7]): 434 ng/g
- concentration in liver (Rat [2]; [8]): 751 ng/g
- concentration in liver (Rat [2]; [9]): 816 ng/g
- concentration in liver (Rat [2]; [10]): 1150 ng/g
- concentration in liver (Rat [2]; [11]): 1540 ng/g
- concentration in liver (Rat [2]; [12]): 49900 ng/g
- concentration in liver (Rat [2]; [13]): 35300 ng/g
- concentration in liver (Rat [2]; [14]): 1460 ng/g
- concentration in liver (Rat [2]; [15]): 1970 ng/g
- concentration in liver (Rat [2]; [16]): 51000 ng/g
- concentration in liver (Rat [2]; [17]): 197000 ng/g
- concentration in liver (Rat [2]; [18]): 2000 ng/g
- concentration in liver (Rat [2]; [19]): 701 ng/g
- concentration in liver (Rat [2]; [20]): 65600 ng/g
- concentration in liver (Rat [2]; [21]): 52000 ng/g
- concentration in liver (Rat [2]; [22]): 64800 ng/g
- concentration in liver (Rat [2]; [23]): 7890 ng/g
- concentration in liver (Rat [2]; [24]): 573 ng/g
- concentration in liver (Rat [2]; [25]): 48600 ng/g
- concentration in liver (Rat [2]; [26]): 14900 ng/g
- concentration in liver (Rat [2]; [27]): 22600 ng/g
- concentration in liver (Rat [2]; [28]): 2160 ng/g
- concentration in kidney (Rat [3]; [7]): 284 ng/g
- concentration in kidney (Rat [3]; [8]): 190 ng/g
- concentration in kidney (Rat [3]; [9]): 677 ng/g
- concentration in kidney (Rat [3]; [10]): 270 ng/g
- concentration in kidney (Rat [3]; [11]): 1260 ng/g
- concentration in kidney (Rat [3]; [12]): 42500 ng/g
- concentration in kidney (Rat [3]; [13]): 70300 ng/g
- concentration in kidney (Rat [3]; [14]): 243 ng/g
- concentration in kidney (Rat [3]; [15]): 2480 ng/g
- concentration in kidney (Rat [3]; [16]): 25600 ng/g
- concentration in kidney (Rat [3]; [17]): 263000 ng/g
- concentration in kidney (Rat [3]; [18]): 419 ng/g
- concentration in kidney (Rat [3]; [19]): 874 ng/g
- concentration in kidney (Rat [3]; [20]): 36200 ng/g
- concentration in kidney (Rat [3]; [21]): 61600 ng/g
- concentration in kidney (Rat [3]; [22]): 30400 ng/g
- concentration in kidney (Rat [3]; [23]): 11600 ng/g
- concentration in kidney (Rat [3]; [24]): 541 ng/g
- concentration in kidney (Rat [3]; [25]): 20300 ng/g
- concentration in kidney (Rat [3]; [26]): 3900 ng/g
- concentration in kidney (Rat [3]; [27]): 6140 ng/g
- concentration in kidney (Rat [3]; [28]): 574 ng/g
- concentration in brain (Rat [4]; 3 h, dosed: Perfluorooctanoic acid, 12 mg/kg, Male): 1300 ng/g
- concentration in brain (Rat [4]; 3 h, dosed: Perfluorooctanoic acid, 80 mg/kg, Female): 916 ng/g
- concentration in brain (Rat [4]; 6 h, dosed: Fluorotelomer alcohol 8+2, 80 mg/kg, Female): 224 ng/g
- concentration in brain (Rat [4]; 6 h, dosed: Perfluorooctanoic acid, 12 mg/kg, Male): 1140 ng/g
- concentration in brain (Rat [4]; 6 h, dosed: Perfluorooctanoic acid, 80 mg/kg, Female): 4050 ng/g
- concentration in brain (Rat [4]; 12 h, dosed: Perfluorooctanoic acid, 12 mg/kg, Male): 1390 ng/g
- concentration in brain (Rat [4]; 12 h, dosed: Perfluorooctanoic acid, 80 mg/kg, Female): 1360 ng/g
- concentration in brain (Rat [4]; 24 h, dosed: Perfluorooctanoic acid, 12 mg/kg, Male): 1080 ng/g
- concentration in brain (Rat [4]; 192 h, dosed: Perfluorooctanoic acid, 12 mg/kg, Male): 584 ng/g
- concentration in kidney (Rat [5]): 27000 ng/g
- concentration in plasma (Rat [6]; 5 min, dosed: 678-39-7, 12 mg/kg, iv, Male, F344): 29.7 ng/mL
- concentration in plasma (Rat [6]; 5 min, dosed: 678-39-7, 40 mg/kg, iv, Male, F344): 189 ng/mL
- concentration in plasma (Rat [6]; 0.25 h, dosed: 678-39-7, 12 mg/kg, iv, Male, F344): 184 ng/mL
- concentration in plasma (Rat [6]; 0.25 h, dosed: 678-39-7, 40 mg/kg, iv, Male, F344): 257000 ng/mL
- concentration in plasma (Rat [6]; 0.25 h, dosed: Fluorotelomer alcohol 8+2, 12 mg/kg, oral, Male, Harlan Sprague Dawley): 14.2 ng/mL
- concentration in plasma (Rat [6]; 0.5 h, dosed: 678-39-7, 12 mg/kg, iv, Male, F344): 282 ng/mL
- concentration in plasma (Rat [6]; 0.5 h, dosed: 678-39-7, 40 mg/kg, iv, Female, Harlan Sprague-Dawley): 1570 ng/mL
- concentration in plasma (Rat [6]; 0.5 h, dosed: 678-39-7, 40 mg/kg, iv, Male, F344): 1510 ng/mL
- concentration in plasma (Rat [6]; 0.5 h, dosed: Fluorotelomer alcohol 8+2, 12 mg/kg, oral, Male, Harlan Sprague Dawley): 68.8 ng/mL
- concentration in plasma (Rat [6]; 0.75 h, dosed: 678-39-7, 12 mg/kg, iv, Male, F344): 203 ng/mL
- concentration in plasma (Rat [6]; 0.75 h, dosed: 678-39-7, 40 mg/kg, iv, Female, Harlan Sprague-Dawley): 1860 ng/mL
- concentration in plasma (Rat [6]; 0.75 h, dosed: Fluorotelomer alcohol 8+2, 12 mg/kg, oral, Male, Harlan Sprague Dawley): 159 ng/mL
- concentration in plasma (Rat [6]; 1 h, dosed: 678-39-7, 12 mg/kg, iv, Male, F344): 396 ng/mL
- concentration in plasma (Rat [6]; 1 h, dosed: 678-39-7, 40 mg/kg, iv, Female, Harlan Sprague-Dawley): 2280 ng/mL
- concentration in plasma (Rat [6]; 3 h, dosed: 678-39-7, 12 mg/kg, iv, Male, F344): 478 ng/mL
- concentration in plasma (Rat [6]; 3 h, dosed: 678-39-7, 40 mg/kg, iv, Male, F344): 2030 ng/mL
- concentration in plasma (Rat [6]; 3 h, dosed: Fluorotelomer alcohol 8+2, 12 mg/kg, oral, Male, Harlan Sprague Dawley): 423 ng/mL
- concentration in plasma (Rat [6]; 6 h, dosed: 678-39-7, 12 mg/kg, iv, Male, F344): 630 ng/mL
- concentration in plasma (Rat [6]; 6 h, dosed: Fluorotelomer alcohol 8+2, 12 mg/kg, oral, Male, Harlan Sprague Dawley): 634 ng/mL
- concentration in plasma (Rat [6]; 9 h, dosed: 678-39-7, 12 mg/kg, iv, Male, F344): 607 ng/mL
- concentration in plasma (Rat [6]; 9 h, dosed: 678-39-7, 40 mg/kg, iv, Female, Harlan Sprague-Dawley): 622 ng/mL
- concentration in plasma (Rat [6]; 9 h, dosed: 678-39-7, 40 mg/kg, iv, Male, F344): 702 ng/mL
- concentration in plasma (Rat [6]; 9 h, dosed: Fluorotelomer alcohol 8+2, 12 mg/kg, oral, Male, Harlan Sprague Dawley): 578 ng/mL
- concentration in plasma (Rat [6]; 12 h, dosed: 678-39-7, 12 mg/kg, iv, Male, F344): 364 ng/mL
- concentration in plasma (Rat [6]; 12 h, dosed: 678-39-7, 40 mg/kg, iv, Female, Harlan Sprague-Dawley): 353 ng/mL
- concentration in plasma (Rat [6]; 12 h, dosed: 678-39-7, 40 mg/kg, iv, Male, F344): 12300 ng/mL
- concentration in plasma (Rat [6]; 12 h, dosed: Fluorotelomer alcohol 8+2, 12 mg/kg, oral, Male, Harlan Sprague Dawley): 507 ng/mL
- concentration in plasma (Rat [6]; 24 h, dosed: 678-39-7, 12 mg/kg, iv, Male, F344): 460 ng/mL
- concentration in plasma (Rat [6]; 24 h, dosed: 678-39-7, 40 mg/kg, iv, Female, Harlan Sprague-Dawley): 52.2 ng/mL
- concentration in plasma (Rat [6]; 48 h, dosed: Fluorotelomer alcohol 8+2, 12 mg/kg, oral, Male, Harlan Sprague Dawley): 536 ng/mL
- concentration in plasma (Rat [6]; 192 h, dosed: 678-39-7, 12 mg/kg, iv, Male, F344): 260 ng/mL
- concentration in plasma (Rat [6]; 192 h, dosed: Fluorotelomer alcohol 8+2, 12 mg/kg, oral, Male, Harlan Sprague Dawley): 356 ng/mL
